From patent US20220024921A1, “1,3,4-OXADIAZOLONE COMPOUND AND PHARMACEUTICAL” (NIPPON SHINYAKU CO., LTD., priority 2018, published 2022)
Where a name gives a salt, the structure may show the parent alone.

How the values were obtained:
[1] = target: T1, PIM1 serine/threonine kinase (Homo sapiens, UniProt P11309); experiment: PIM1 serine/threonine kinase inhibitory effect; type: biochemical; details: PIM1 serine/threonine kinase activity; ATP 40 μM; 30° C., 30 minutes
T1 construct: purchased Carna Bioscience, Inc
Protocol: Each test substance was prepared to 10 mM with dimethylsulfoxide (DMSO), and further diluted with DMSO so as to have concentrations of 1000, 300, 100, 30, 10, 3, 1, 0.3, 0.1, 0.03, 0.01, and 0.001 μM. Moreover, each dilution was further diluted 33.3-fold with an assay buffer to prepare a test substance solution. The composition of the assay buffer was 50 mM HEPES (pH 7.0), 0.02% NaN3, 0.01% Bovine Serum Albumin, 0.1 mM Orthovanadate, 1 mM Dithiothreitol, and 5 mM MgCl2.
5 μL of each test substance solution was added to 384-well plates (n=2), and then 2.5 μL of a substrate solution (substrate 3-biotin (Cisbio Bioassays SAS), final concentration in the reaction solution: 0.5 μM) and 2.5 μL of an ATP solution (in the cases of PIM1, 2, 3, the final concentrations in the reaction solutions were 40, 2, and 10 μM, respectively) were added, 5 μL of each of PIM1, 2, 3 serine/threonine kinase solutions (Carna Bioscience, Inc., the final concentrations in the reaction solutions were 0.15, 1.6, and 0.25 μg/ml, respectively) was finally added, and the mixture was reacted at 30° C. for 30 minutes. The test substance concentrations in the reaction solutions are 10000, 3000, 1000, 300, 100, 30, 10, 3, 1, 0.3, 0.1, and 0.01 nM.
Thereafter, 15 μL of each detection solution (62.5 nM Streptavidin-XL665 (Cisbio Bioassays SAS), […] STK antibody-Cryptate (Cisbio Bioassays SAS), 50 mM HEPES (pH 7.0), 0.8 M KF, 0.1% Bovine Serum Albumin, 20 mM ethylenediaminetetraacetic acid) was added to each well. After stirring, the mixture was reacted at 30° C. for 1 hour. Absorbance (OD620, OD665) at 620 and 665 nm was measured with a microplate reader (SpectraMax M5e, Molecular Devices, LLC).
Non-linear regression analysis was performed by an SAS system (SAS Institute Inc.) using the ratio (OD665/OD620) of the measured absorbance to calculate a test substance concentration (IC50) that inhibits PIM1 serine/threonine kinase activity by 50%.

[2] = target: PIM1 transgenic cells (Ba/F3) (Homo sapiens, UniProt P11309); experiment: Proliferation inhibitory effect on PIM1 transgenic cells; type: cell-based, mouse; details: proliferation inhibition, 72 hours, Cell Counting Kit-8, read-out: PIM1 IC50
Excerpt: Human PIM1, 2, and 3 genes were inserted into the multi-cloning sites of retrovirus expression vectors pMYs-IRES-GFP, respectively, to prepare gene transfer vectors. Then, each gene transfer vector was introduced into packaging cells PLAT-E derived from a human fetal kidney cell line in the logarithmic growth phase, using a transfection reagent (FuGENE6, Promega Corporation). Since the culture supernatant of PLAT-E after gene transfer contained virus particles for gene transfer, the culture supernatant was collected and used as a medium for gene transfer. The medium for gene transfer was added to a plate coated with RetroNectin, and the plate was incubated to attach the virus particles to the plate. Then, a mouse pro-B cell line Ba/F3 in the logarithmic growth phase was seeded on the plate and infected with the virus to prepare PIM1, 2, or 3 transgenic cells that proliferate in a PIM 1, 2, or 3-dependent manner. The expression of PIM1, 2, or 3 protein in each cell was confirmed by Western blotting.
Each test substance was prepared to 10 mM with dimethylsulfoxide (DMSO), and diluted with DMSO so as to have concentrations of 3000, 1000, 300, 100, 30, 10, 3, and 1 μM. Moreover, each dilution was further diluted 10-fold with distilled water to prepare a test substance solution.
PIM1, 2, 3-expressing cells were seeded on a 96-well plate, and each test substance solution prepared the next day was added such that final concentrations were 10000, 3000, 1000, 300, 100, 30, 10, 3, and 1 nM. 72 hours after the addition, 10 μL of Cell Counting Kit-8 (DOJINDO LABORATORIES) was added to each well. After incubation for 1 to 4 hours, absorbance OD450 at 450 nm was measured. In addition, absorption OD650 at 650 nm as a reference wavelength was measured.
OD450-OD650 for each condition was calculated, and then the inhibition rates when OD450-OD650 of negative control (DMSO only) and OD450-OD650 of Blank (without cells) were set to 0% and 100%, respectively, were calculated. Then, non-linear regression analysis was performed for logarithmic dose and inhibition rate using a two-parameter logistic model to estimate IC50 values.

T1 sequence (P11309 whole entry): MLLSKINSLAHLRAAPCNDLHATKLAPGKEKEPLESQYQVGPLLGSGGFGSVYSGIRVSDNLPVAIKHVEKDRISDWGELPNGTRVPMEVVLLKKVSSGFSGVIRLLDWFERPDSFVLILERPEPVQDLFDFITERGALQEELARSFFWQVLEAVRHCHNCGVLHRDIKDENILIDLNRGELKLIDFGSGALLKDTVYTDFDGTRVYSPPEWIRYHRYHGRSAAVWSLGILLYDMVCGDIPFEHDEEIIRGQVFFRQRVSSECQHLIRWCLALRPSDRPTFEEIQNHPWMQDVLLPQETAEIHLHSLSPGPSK
Chain of PIM1 transgenic cells (Ba/F3) (P11309 whole entry, stated change not applied): as the sequence (P11309 whole entry) above

IC50 [1] [nM]	GI50 [2] [nM]	Compound
8.1	140	CCN[C@H]1C[C@@H]([C@H](C)Nc2cc(-c3n[nH]c(=O)o3)ccc2C(F)(F)F)C1 [Example 195, 5-[3-({(1S)-1-[(1s,3R)-3-(ethylamino)cyclobutyl]ethyl}amino)-4-(trifluoromethyl)phenyl]-1,3,4-oxadiazol-2(3H)-one hydrochloride]
21	570	N[C@H]1CCCN(CCNc2cc(-c3n[nH]c(=O)o3)ccc2C(F)(F)F)C1 [Example 73, 5-[3-({2-[(3S)-3-aminopiperidin-1-yl]ethyl}amino)-4-(trifluoromethyl)phenyl]-1,3,4-oxadiazol-2(3H)-one dihydrochloride]
3.2	34	C[C@H](Nc1cc(-c2n[nH]c(=O)o2)cc(F)c1Cl)[C@H]1C[C@@H](N)C1 [Example 178, 5-[3-({(1S)-1-[(1s,3R)-3-aminocyclobutyl]ethyl}amino)-4-chloro-5-fluorophenyl]-1,3,4-oxadiazol-2(3H)-one hydrochloride]
14	3100	CN(CC1CCNCC1)c1cc(-c2n[nH]c(=O)o2)ccc1C(F)(F)F [Example 51, 5-[3-{methyl[(piperidin-4-yl)methyl]amino}-4-(trifluoromethyl)phenyl]-1,3,4-oxadiazol-2(3H)-one hydrochloride]
9.2	250	C[C@H](Nc1cc(-c2n[nH]c(=O)o2)ccc1C(F)(F)F)[C@H]1C[C@@H](NCC2CC2)C1 [Example 196, 5-[3-{[(1S)-1-{(1s,3R)-3-[(cyclopropylmethyl)amino]cyclobutyl}ethyl]amino}-4-(trifluoromethyl)phenyl]-1,3,4-oxadiazol-2(3H)-one hydrochloride]
2.4	35	C[C@H](Nc1cc(-c2n[nH]c(=O)o2)ccc1Br)[C@H]1CC[C@H](N)CC1 [Example 154, 5-[3-({(1S)-1-[(1r,4S)-4-aminocyclohexyl]ethyl}amino)-4-bromophenyl]-1,3,4-oxadiazol-2(3H)-one hydrochloride]
2.9	56	C[C@H](Nc1cc(-c2n[nH]c(=O)o2)ccc1C(F)(F)F)[C@@H]1CC[C@@H](N)CO1 [Example 188, 5-[3-({(S)-1-[(2S,5R)-5-aminotetrahydro-2H-pyran-2-yl]ethyl}amino)-4-(trifluoromethyl)phenyl]-1,3,4-oxadiazol-2(3H)-one]
30	540	CC(C)(CN)C1CCN(c2cc(-c3n[nH]c(=O)o3)ccc2C(F)(F)F)CC1 [Example 13, 5-{3-[4-(1-amino-2-methylpropan-2-yl)piperidin-1-yl]-4-(trifluoromethyl)phenyl}-1,3,4-oxadiazol-2(3H)-one]
10	270	O=c1[nH]nc(-c2ccc(C(F)(F)F)c(NC3CC34CCNCC4)c2)o1 (centres unmarked) [Example 42, 5-{3-[(6-azaspiro[2.5]octan-1-yl)amino]-4-(trifluoromethyl)phenyl}-1,3,4-oxadiazol-2(3H)-one hydrochloride]
15	1900	NCCCCNc1cc(-c2n[nH]c(=O)o2)ccc1C(F)(F)F [Example 1, 5-{3-[(4-aminobutyl)amino]-4-(trifluoromethyl)phenyl}-1,3,4-oxadiazol-2(3H)-one hydrochloride]
3.5	68	CC[C@H](Nc1cc(-c2n[nH]c(=O)o2)ccc1C(F)(F)F)[C@H]1CC[C@H](N)CC1 [Example 181, 5-[3-({(1S)-1-[(1r,4S)-4-aminocyclohexyl]propyl}amino)-4-(trifluoromethyl)phenyl]-1,3,4-oxadiazol-2(3H)-one hydrochloride]

The next lines start with the compound.

Compound	IC50 [1] [nM]	GI50 [2] [nM]
N[C@H]1CC[C@H](CNc2cc(-c3n[nH]c(=O)o3)cc(F)c2Cl)CC1 [Example 86, 5-[3-({[(1r,4r)-4-aminocyclohexyl]methyl}amino)-4-chloro-5-fluorophenyl]-1,3,4-oxadiazol-2(3H)-one hydrochloride]	0.6	61
C[C@@H]([C@H]1CC[C@H](N)CC1)N1CCOc2ccc(-c3n[nH]c(=O)o3)cc21 [Example 247, 5-(4-{(1S)-1-[(1r,4S)-4-aminocyclohexyl]ethyl}-3,4-dihydro-2H-1,4-benzoxazin-6-yl)-1,3,4-oxadiazol-2(3H)-one]	2.8	120
N[C@H]1CO[C@H](CCc2cc(-c3n[nH]c(=O)o3)ccc2C(F)(F)F)OC1 [Example 28, 5-[3-{2-[(2r,5r)-5-amino-1,3-dioxan-2-yl]ethyl}-4-(trifluoromethyl)phenyl]-1,3,4-oxadiazol-2(3H)-one hydrochloride]	38	3500
C[C@H](Nc1cc(-c2n[nH]c(=O)o2)cc(F)c1C(F)(F)F)C1(C)CCNCC1 [Example 206, 5-[3-fluoro-5-{[(1S)-1-(4-methylpiperidin-4-yl)ethyl]amino}-4-(trifluoromethyl)phenyl]-1,3,4-oxadiazol-2(3H)-one]	1.7	32
C[C@H](Nc1c(F)c(-c2n[nH]c(=O)o2)cc(F)c1Cl)C1CCNCC1 [Example 88, 5-(4-chloro-2,5-difluoro-3-{[(1S)-1-(piperidin-4-yl)ethyl]amino}phenyl)-1,3,4-oxadiazol-2(3H)-one hydrochloride]	2.4	110
C[C@H](Nc1cc(-c2n[nH]c(=O)o2)cc(F)c1C(F)(F)F)C1(F)CCNCC1 [Example 159, 5-[3-fluoro-5-{[(1S)-1-(4-fluoropiperidin-4-yl)ethyl]amino}-4-(trifluoromethyl)phenyl]-1,3,4-oxadiazol-2(3H)-one hydrochloride]	2.8	30
NCCC1CCN(c2cc(-c3n[nH]c(=O)o3)cc3[nH]ncc23)CC1 [Example 12, 5-{4-[4-(2-aminoethyl)piperidin-1-yl]-1H-indazol-6-yl}-1,3,4-oxadiazol-2(3H)-one dihydrochloride]	13	5100
O=c1[nH]nc(-c2ccc(Br)c(NCC3CCNCC3)c2)o1 [Example 50, 5-(4-bromo-3-{[(piperidin-4-yl)methyl]amino}phenyl)-1,3,4-oxadiazol-2(3H)-one hydrochloride]	3.7	1800
O=c1[nH]nc(-c2ccc(Cl)c(NC[C@@H]3CCNC3)c2)o1 [Example 49, 5-[4-chloro-3-({[(3R)-pyrrolidin-3-yl]methyl}amino)phenyl]-1,3,4-oxadiazol-2(3H)-one hydrochloride]	18	7600
C[C@H](Nc1cc(-c2n[nH]c(=O)o2)cc(Br)c1Cl)[C@H]1C[C@@H](N)C1 [Example 182, 5-[3-({(1S)-1-[(1s,3R)-3-aminocyclobutyl]ethyl}amino)-5-bromo-4-chlorophenyl]-1,3,4-oxadiazol-2(3H)-one hydrochloride]	1.7	45
C[C@H](Nc1cc(-c2n[nH]c(=O)o2)cc(N)c1Cl)C1CCNCC1 [Example 92, 5-(3-amino-4-chloro-5-{[(1S)-1-(piperidin-4-yl)ethyl]amino}phenyl)-1,3,4-oxadiazol-2(3H)-one dihydrochloride]	2.6	280
